Results from patent US20090203605A1, “Methods For Treating A Condition Characterized By Dysfunction In Protein Homeostasis” (THE SCRIPPS RESEARCH INSTITUTE, priority 2008, published 2009).
Residues, ends and D or L forms follow the SMILES beside them. *: point of attachment. Cbz = O=C(OCc1ccccc1)*

Experiments:
[1] = tested on: Hsp70, HSF1, BiP, Hsp40, Hsp90; experiment: Western blot of chaperone and HSF1 protein levels in L444P GC fibroblasts; assay type: cell-based, human
Method: To correlate changes in Hsp70 chaperone levels with the celastrol-mediated transcriptional increase in Hsp70, as well as to investigate the temporal dependence of the change in Hsp70 levels, L444P GC fibroblasts were subjected to a single celastrol exposure (0.8 μM) for the period indicated and Hsp70 expression levels in cell lysates were analyzed by Western blot analysis. […] Hsp70, a product of HSR activation, has been implicated in HSR autoregulation by binding to HSF1, thereby repressing heat shock gene transcription (FIG. 7). Morimoto, Genes Dev 12: 3788-3796, 1998; Westerheide et al., J Biol Chem 280: 33097-33100, 2005.
Since HSF1 is likely to be responsible for celastrol's induction of the HSR we monitored HSF1 levels. Westerheide et al., J Biol Chem 279: 56053-56060, 2004. […] Awasthi, et al., Invest Opthalmol Vis Sci 46: 2082-2091, 2005; Bush et al., J Biol Chem 272: 9086-9092, 1997.
Western blot analyses. […] Total cell protein was determined with Micro BCA assay reagent (Pierce, Rockford, Ill.) and each sample was diluted to the same protein concentration. […] The western blot bands of the endoH treated samples were quantified by Java Image processing and analysis software from the NIH (http://rsb.info.nih.gov/ij/).
Western blot. […] Total cell protein was measured using the Micro BCA assay reagent. […]

[2] = target: T1, L444P GC (Homo sapiens, UniProt P04062, L483P); experiment: GC activity assay in L444P GC Gaucher patient-derived fibroblasts; assay type: cell-based
T1 construct: a L444P GC Gaucher fibroblast cell line (GM08760); host or cells: Gaucher patient-derived skin fibroblasts
T1 sequence (P04062 40-536 L483P): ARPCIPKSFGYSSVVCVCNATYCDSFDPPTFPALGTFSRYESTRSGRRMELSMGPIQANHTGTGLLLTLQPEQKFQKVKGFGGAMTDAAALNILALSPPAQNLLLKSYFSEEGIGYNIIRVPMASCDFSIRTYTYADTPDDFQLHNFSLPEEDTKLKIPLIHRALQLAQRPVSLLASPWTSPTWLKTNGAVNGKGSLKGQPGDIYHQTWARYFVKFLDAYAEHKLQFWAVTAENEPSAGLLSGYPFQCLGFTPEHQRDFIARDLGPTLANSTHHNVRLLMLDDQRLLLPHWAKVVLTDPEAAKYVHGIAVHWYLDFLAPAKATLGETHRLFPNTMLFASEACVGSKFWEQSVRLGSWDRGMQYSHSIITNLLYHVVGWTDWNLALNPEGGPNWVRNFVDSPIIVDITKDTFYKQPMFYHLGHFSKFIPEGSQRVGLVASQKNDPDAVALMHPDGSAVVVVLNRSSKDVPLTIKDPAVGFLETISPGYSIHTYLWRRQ

[3] = tested on: chaperone, CHOP and GC mRNA expression levels; experiment: Quantitative RT-PCR in L444P GC fibroblasts; assay type: cell-based, human
Description: The relative mRNA expression levels of representative cytoplasmic HSR-associated chaperones (Hsp40, Hsp70, Hsp90, Hsp27, αB-crystallin), ER lumenal UPR-associated chaperones (BiP, GRP94, calreticulin), and the ER chaperone calnexin were monitored and their reported levels were normalized to the levels in untreated cells (FIGS. 5A and B). The levels of glyceraldehyde-3-phosphate dehydrogenase, monitored as a housekeeping control, were unchanged in treated and untreated cells.
Quantitative RT-PCR. […] The forward and reverse primers for Hsp40, Hsp70, Hsp90, Hsp27, αB-crystallin (CRYAB), BiP, GRP94, calnexin (CNX), calreticulin (CRT), Xbp-1, and CHOP, and an endogenous housekeeping gene GAPDH are listed in Table 2. […] Each data point was evaluated in triplicate, and measured three times.

[4] = tested on: L444P GC; assay type: cell-based, human; conditions: MG-132 0.25 μM for 3 d; diltiazem 10 μM for 14 days
Description: (§1) Immunofluorescence. Immunofluorescence has been previously described.
as §1

[5] = target: T1, L444P GC; experiment: Lysed cell GC activity assay, lysed L444P fibroblasts incubated with compound; assay type: biochemical; conditions: 0.01 to 1000 μM
[6] = diltiazem 10 μM, 7-day treatment

Compound: COc1ccc([C@@H]2Sc3ccccc3N(CCN(C)C)C(=O)[C@@H]2OC(C)=O)cc1.Cl [diltiazem, Diltiazem hydrochloride]
- protein expression levels of BiP, Hsp40, and Hsp90 [1, 6]: increased protein expression levels
- direct activation of lysosomal L444P GC ([2]; 1 μM to 100 μM, 1 h, intact cell assay): No activity increase was observed
- effect on L444P GC activity, intact cell GC activity assay ([2]; calcium channel blockers and ionotropic glutamate receptor inhibitors): increased L444P GC activity significantly
- L444P GC activity as % of normal cellular WT GC activity ([2]; diltiazem 10 μM, 5-day incubation, type II line (FIG. 17C, left panel)): ≈ 24%
- mRNA expression levels of Hsp70, GRP94, calnexin, and calreticulin [3, 6]: not changed significantly
- GC mRNA expression level vs untreated cells ([3]; diltiazem 10 μM, 6 h, 12 h, 1 day, 3 days and 5 days): No significant differences
- colocalization of L444P GC with lysosomal marker LAMP2 [4]: L444P GC colocalized with LAMP2
- GC inhibition in lysed L444P fibroblasts [5]: No significant GC inhibition

Compound: CC(C)C[C@@H](C=O)NC(=O)[C@H](CC(C)C)NC(=O)[C@H](CC(C)C)NC(=O)OCc1ccccc1 [MG-132] (Cbz-Leu-Leu-Leu-aldehyde)
- HSF1 protein levels ([1]; 0.8 μM, over 24 h): remained constant
- L444P GC activity as % of WT GC activity ([2]; MG-132 single exposure, after 120 h (FIG. 2A)): ≈ 50.0%
- transcription of Hsp27 ([3]; 0.8 μM, 24 h): did not
- transcription of calnexin ([3]; 0.8 μM, 24 h): upregulated the transcription of calnexin significantly
- mRNA expression level of BiP ([3]; 0.8 μM, 2, 4, 6 and 24 h): BiP was also upregulated
- mRNA expression level of CHOP ([3]; 0.8 μM, 2, 4, 6 and 24 h): upregulated the mRNA expression level of CHOP significantly
- colocalization of L444P GC with lysosomal marker LAMP2 [4]: exhibited colocalization with the lysosomal marker LAMP2
